# In EP4273147A1, “SUBSTITUTED SPIROLACTAMS, SALTS THEREOF AND THEIR USE AS HERBICIDALLY ACTIVE SUBSTANCES” (Bayer Aktiengesellschaft, priority 2022, dated 2023):
# Key:
# [1] = system: SETVI; assay: Herbicidal pre-emergence action (Table A5); format: in vivo, Setaria viridis; conditions: visual grading after ca. 3 weeks
# Outline: (§1)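 Paired sowings (monocot weed with dicot weed) in potted sandy loam, seeds soil-covered.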
# [2] = system: ECHCG; assay: Herbicidal post-emergence action (Table B3); format: in vivo, Echinochloa crus-galli; conditions: rated visually after about 3 weeks
# Outline: (§2)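 Visual rating of activity versus untreated plants about 3 weeks after treatment: 0% means no difference from controls, 100% means complete kill. Test weeds were raised from seed in sandy loam under controlled greenhouse conditions and sprayed at the one-leaf stage.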
# [3] = system: ECHCG; assay: Herbicidal pre-emergence action (Table A2); format: in vivo, Echinochloa crus-galli; conditions: visual grading after ca. 3 weeks
# Outline: as §1
# [4] = system: SETVI; assay: Herbicidal post-emergence action (Table B8); format: in vivo, Setaria viridis; conditions: application rate 1280 g/ha
# Protocol: (§3) Seeds of mono- and dicotyledonous weed plants were placed in plastic pots in sandy loam soil (doubly sown with in each case one species of mono- or dicotyledonous weed plants per pot), covered with soil and cultivated in a greenhouse under controlled growth conditions. 2 to 3 weeks after sowing, the test plants were treated at the one-leaf stage. […] After the test plants had been kept in the greenhouse under optimum growth conditions for about 3 weeks, the activity of the preparations was rated visually in comparison to untreated controls. For example, 100% activity = the plants have died, 0% activity = like control plants.
# [5] = system: POAAN; assay: Herbicidal pre-emergence action (Table A7); format: in vivo, Poa annua; conditions: visual grading after ca. 3 weeks
# Outline: as §1
# [6] = system: STEME; assay: Herbicidal pre-emergence action (Table A6); format: in vivo, Stellaria media; conditions: visual grading after ca. 3 weeks
# Outline: as §1
# [7] = system: ALOMY; assay: Herbicidal pre-emergence action (Table A9); format: in vivo, Alopecurus myosuroides; conditions: application rate 1280 g/ha; visual grading after ca. 3 weeks
# Text: (§4) Seeds of mono- and dicotyledonous weed plants were sown in plastic pots (double sowings with one species of mono- and one species of dicotyledonous weed plants per pot), in sandy loam, and covered with soil.
# [8] = system: VERPE; assay: Herbicidal pre-emergence action (Table A11); format: in vivo, Veronica persica; conditions: application rate 1280 g/ha; visual grading after ca. 3 weeks
# Text: as §4
# [9] = system: POAAN; assay: Herbicidal post-emergence action (Table B7); format: in vivo, Poa annua
# Outline: as §2
# [10] = system: AMARE; assay: Herbicidal post-emergence action (Table B11); format: in vivo, Amaranthus retroflexus; conditions: application rate 1280 g/ha
# Protocol: as §3
# [11] = system: LOLRI; assay: Herbicidal pre-emergence action (Table A3); format: in vivo, Lolium rigidum; conditions: visual grading after ca. 3 weeks
# Outline: as §1
# [12] = system: MATIN; assay: Herbicidal pre-emergence action (Table A4); format: in vivo, Matricaria inodora; conditions: application rate 1280 g/ha; visual grading after ca. 3 weeks
# Outline: as §1
# [13] = system: VERPE; assay: Herbicidal post-emergence action (Table B10); format: in vivo, Veronica persica
# Protocol: as §3
# [14] = system: ORYZA; assay: Post-emergence effects on crop plants (Table F3); format: in vivo, Oryza sativa; conditions: application rate 320 g/ha, crop plant ORYZA
# Text: (§5) 2 to 3 weeks after sowing, the test plants were sprayed in the single-leaf stage.
# [15] = system: ECHCG; assay: Herbicidal pre-emergence action, section C (Table C6); format: in vivo, Echinochloa crus-galli; conditions: application rate 320 g/ha; visual grading after ca. 3 weeks
# [16] = system: SETVI; assay: Herbicidal pre-emergence action, section C (Table C10); format: in vivo, Setaria viridis; conditions: application rate 320 g/ha; visual grading after ca. 3 weeks
# [17] = system: TRZAS; assay: Post-emergence effects on crop plants (Table F2); format: in vivo, Triticum aestivum; conditions: application rate 320 g/ha, crop plant TRZAS
# Text: as §5
# [18] = system: GLXMA; assay: Post-emergence effects on crop plants (Table F4); format: in vivo, Glycine max; conditions: application rate 320 g/ha, crop plant GLXMA
# Text: as §5
# [19] = system: BRSNW; assay: Post-emergence effects on crop plants (Table F5); format: in vivo, Brassica napus; conditions: application rate 320 g/ha, crop plant BRSNW
# Text: as §5
# [20] = system: GLXMA; assay: Pre-emergence effects on crop plants (Table D4); format: in vivo, Glycine max; conditions: crop plant; application rate 320 g/ha; visual grading after ca. 3 weeks
# [21] = system: ZEAMX; assay: Post-emergence effects on crop plants (Table F1); format: in vivo, Zea mays; conditions: application rate 320 g/ha, crop plant ZEAMX
# Text: as §5
# [22] = system: ZEAMX; assay: Pre-emergence effects on crop plants (Table D1); format: in vivo, Zea mays; conditions: crop plant; application rate 80 g/ha; visual grading after ca. 3 weeks
# [23] = system: VIOTR; assay: Herbicidal pre-emergence action, section C (Table C12); format: in vivo, Viola tricolor; conditions: application rate 320 g/ha; visual grading after ca. 3 weeks
# Text: (§6) Seeds of mono- and dicotyledonous weed plants and crop plants were sown, in plastic or organic planting pots, in sandy loam and covered with soil. The compounds according to the invention, formulated in the form of wettable powders (WP) or as emulsifiable concentrates (EC), were applied to the surface of the covering soil as aqueous suspension or emulsion, with the addition of 0.5% of an additive, at an application rate of 600 1 of water/ha (converted). Following treatment, the pots were placed in a greenhouse and kept under optimum growth conditions for the test plants.
# [24] = system: DIGSA; assay: Herbicidal pre-emergence action, section C (Table C5); format: in vivo, Digitaria sanguinalis; conditions: visual grading after ca. 3 weeks
# Text: as §6
# [25] = system: BRSNW; assay: Pre-emergence effects on crop plants (Table D5); format: in vivo, Brassica napus; conditions: crop plant; application rate 320 g/ha; visual grading after ca. 3 weeks
# [26] = system: TRZAS; assay: Pre-emergence effects on crop plants (Table D2); format: in vivo, Triticum aestivum; conditions: crop plant, visual grading after ca. 3 weeks
# [27] = system: LOLRI; assay: Herbicidal pre-emergence action, section C (Table C7); format: in vivo, Lolium rigidum; conditions: application rate 320 g/ha; visual grading after ca. 3 weeks
# [28] = system: ALOMY; assay: Herbicidal pre-emergence action, section C (Table C2); format: in vivo, Alopecurus myosuroides; conditions: application rate 320 g/ha; visual grading after ca. 3 weeks
# [29] = system: VERPE; assay: Herbicidal pre-emergence action, section C (Table C11); format: in vivo, Veronica persica; conditions: application rate 80 g/ha; visual grading after ca. 3 weeks
# [30] = system: ORYZA; assay: Pre-emergence effects on crop plants (Table D3); conditions: crop plant, visual grading after ca. 3 weeks
# Text: Seeds of mono- and dicotyledonous weed plants and crop plants were sown, in plastic or organic planting pots, in sandy loam and covered with soil. The compounds according to the invention, formulated in the form of wettable powders (WP) or as emulsifiable concentrates (EC), were applied to the surface of the covering soil as aqueous suspension or emulsion, with the addition of 0.5% of an additive, at an application rate of 600 1 of water/ha (converted).
# Following treatment, the pots were placed in a greenhouse and kept under optimum growth conditions for the test plants.
# [31] = system: ECHCG; assay: Herbicidal post-emergence action, section E (Table E5); format: in vivo, Echinochloa crus-galli; conditions: application rate 320 g/ha; assessed visually after ca. 3 weeks
# Text: as §5
# [32] = system: MATIN; assay: Herbicidal post-emergence action (Table B6); format: in vivo, Matricaria inodora; conditions: rated visually after about 3 weeks
# Protocol: as §3
# [33] = system: DIGSA; assay: Herbicidal pre-emergence action (Table A12); format: in vivo, Digitaria sanguinalis; conditions: visual grading after ca. 3 weeks
# Outline: as §1
# [34] = system: KCHSC; assay: Herbicidal pre-emergence action (Table A10); format: in vivo, Kochia scoparia; conditions: application rate 1280 g/ha; visual grading after ca. 3 weeks
# Text: as §4
# [35] = system: ABUTH; assay: Herbicidal pre-emergence action (Table A1); format: in vivo, Abutilon theophrasti; conditions: application rate 1280 g/ha; visual grading after ca. 3 weeks vs untreated controls (100% = plants have died off, 0% = as control plants)
# Text: as §4
SMILES,pre-emergence activity against SETVI ([1]; application rate 320 g/ha),pre-emergence activity against ECHCG ([3]; application rate 320 g/ha),pre-emergence activity against POAAN ([5]; application rate 320 g/ha),pre-emergence activity against STEME ([6]; application rate 1280 g/ha),post-emergence activity against POAAN ([9]; application rate 1280 g/ha),post-emergence activity against AMARE [10],pre-emergence activity against LOLRI ([11]; application rate 1280 g/ha),pre-emergence activity against MATIN [12],pre-emergence activity against SETVI ([1]; application rate 1280 g/ha),pre-emergence activity against ECHCG ([3]; application rate 1280 g/ha),post-emergence activity against ECHCG ([2]; application rate 1280 g/ha),also measured
O=C1N(Cc2cccc(Cl)c2F)CCCC12CCCN(Cc1cccc(Cl)c1F)C2=O (racemic) [I-007],100%,100%,100%,90%,90%,90%,100%,90%,,,,post-emergence activity against ECHCG ([2]; application rate 320 g/ha): 100%; post-emergence activity against SETVI [4]: 90%; pre-emergence activity against ALOMY [7]: 90%; pre-emergence activity against VERPE [8]: 90%; post-emergence activity against VERPE ([13]; application rate 320 g/ha): 90%
COc1c(F)ccc(CN2CCCC3(CCCN(Cc4ccc(F)c(OC)c4F)C3=O)C2=O)c1F (racemic) [I-019],,,100%,,100%,100%,,,100%,,,pre-emergence activity against STEME ([6]; application rate 320 g/ha): 100%
O=C1N(Cc2ccc(F)cc2F)CCCC12CCCN(Cc1ccc(F)cc1F)C2=O (racemic) [I-021],100%,,90%,,,,,,,100%,,post-emergence activity against ORYZA [14]: 0%; pre-emergence activity against ECHCG [15]: 100%; pre-emergence activity against SETVI [16]: 100%; post-emergence activity against TRZAS [17]: 0%; post-emergence activity against GLXMA [18]: 10%; post-emergence activity against BRSNW [19]: 0%; pre-emergence activity against STEME ([6]; application rate 320 g/ha): 90%; pre-emergence activity against GLXMA [20]: 10%; post-emergence activity against ZEAMX [21]: 10%; pre-emergence activity against ZEAMX [22]: 0%; pre-emergence activity against VIOTR [23]: 80%; pre-emergence activity against DIGSA ([24]; application rate 80 g/ha): 90%; pre-emergence activity against BRSNW [25]: 20%; pre-emergence activity against TRZAS ([26]; application rate 80 g/ha): 0%; pre-emergence activity against LOLRI [27]: 100%; pre-emergence activity against LOLRI ([11]; application rate 320 g/ha): 100%; pre-emergence activity against ALOMY [28]: 100%; pre-emergence activity against VERPE [29]: 100%; pre-emergence activity against ORYZA ([30]; application rate 80 g/ha): 10%; post-emergence activity against ECHCG [31]: 80%
Cc1ccc(F)c(CN2CCCC3(CCCN(Cc4c(F)ccc(C)c4F)C3=O)C2=O)c1F (racemic) [I-029],,,90%,90%,90%,,100%,,100%,100%,100%,post-emergence activity against MATIN ([32]; application rate 1280 g/ha): 100%
O=C1N(Cc2ccccc2Cl)CCCC12CCCN(Cc1ccccc1Cl)C2=O (racemic) [I-030],,90%,,,,,,,100%,,,pre-emergence activity against POAAN ([5]; application rate 1280 g/ha): 90%; post-emergence activity against POAAN ([9]; application rate 320 g/ha): 90%; post-emergence activity against MATIN ([32]; application rate 320 g/ha): 90%
Cc1cccc(CN2CCCC3(CCCN(Cc4cccc(C)c4F)C3=O)C2=O)c1F (racemic) [I-053],,,100%,,90%,,90%,,100%,100%,,post-emergence activity against ORYZA [14]: 0%; pre-emergence activity against SETVI [16]: 100%; post-emergence activity against TRZAS [17]: 10%; post-emergence activity against GLXMA [18]: 0%; post-emergence activity against BRSNW [19]: 20%; pre-emergence activity against DIGSA ([33]; application rate 320 g/ha): 100%; post-emergence activity against ZEAMX [21]: 0%; pre-emergence activity against ZEAMX [22]: 0%; pre-emergence activity against VIOTR [23]: 90%; pre-emergence activity against DIGSA ([24]; application rate 320 g/ha): 100%; pre-emergence activity against BRSNW [25]: 10%; pre-emergence activity against TRZAS ([26]; application rate 320 g/ha): 0%; post-emergence activity against MATIN ([32]; application rate 320 g/ha): 90%; pre-emergence activity against ORYZA ([30]; application rate 320 g/ha): 0%
O=C1N(Cc2cccs2)CCCC12CCCN(Cc1ccccc1F)C2=O (racemic) [I-065],90%,90%,,,90%,90%,,,,,,pre-emergence activity against KCHSC [34]: 90%; pre-emergence activity against ALOMY [7]: 90%; pre-emergence activity against LOLRI ([11]; application rate 320 g/ha): 100%
O=C1N(Cc2ccccc2)CCCC12CCCN(Cc1c(F)cccc1F)C2=O (racemic) [I-068],100%,100%,100%,90%,,100%,90%,,,,90%,post-emergence activity against VERPE ([13]; application rate 1280 g/ha): 90%
O=C1N(Cc2ccccc2Cl)CCCC12CCN(Cc1c(F)cccc1F)C2=O (racemic) [I-076],,,100%,,,,,90%,100%,100%,90%,pre-emergence activity against STEME ([6]; application rate 320 g/ha): 90%; pre-emergence activity against DIGSA ([33]; application rate 320 g/ha): 90%; pre-emergence activity against LOLRI ([11]; application rate 320 g/ha): 100%; pre-emergence activity against ABUTH [35]: 90%
O=C1N(Cc2ccccc2)CCC12CCCN(Cc1ccccc1F)C2=O (racemic) [I-093],100%,,100%,90%,,,100%,90%,,100%,,pre-emergence activity against KCHSC [34]: 90%; pre-emergence activity against DIGSA ([33]; application rate 1280 g/ha): 100%; post-emergence activity against POAAN ([9]; application rate 320 g/ha): 90%; pre-emergence activity against ABUTH [35]: 90%
COc1ccccc1CN1CCCC2(CCCN(Cc3ccccc3Cl)C2=O)C1=O (racemic) [I-095],,100%,,,,90%,,,90%,,90%,post-emergence activity against VERPE ([13]; application rate 1280 g/ha): 90%
O=C1N(Cc2ccccc2F)CCC12CCN(Cc1ccccc1F)C2=O (racemic) [I-097],,,,,,90%,90%,90%,100%,90%,,pre-emergence activity against KCHSC [34]: 90%
O=C1N(Cc2ccccn2)CCCC12CCCN(Cc1cccc(F)c1F)C2=O (racemic) [I-108],,90%,,,,90%,,90%,90%,,,pre-emergence activity against POAAN ([5]; application rate 1280 g/ha): 90%; pre-emergence activity against ALOMY [7]: 90%
